Test results: US20020122813A1, “Insect attractants” (priority 1999, published 2002)
“Also recorded” adds a separate entry of the source.

What was measured:
[1] = tested on: Anopheles gambiae s.s.; test: wind tunnel landing bioassay on heated glass cylinders with filter papers; assay type: in vivo; conditions: for landing response compared to water control, comparative bioassay of α-oxo-carboxylic acids: FIG. 5, 6 replicates
Description: Trials used either Aedes aegypti or the Tanzanian KWA strain of Anopheles gambiae s.s., both obtained from the London School of Hygiene and Tropical Medicine. The rearing and bioassay rooms were maintained at 27° C. ±2° and 70% RH ±10%. […] To circumvent this problem we concentrated on investigating the landing responses of An gambiae s.s. on heated glass cylinders treated with sweat and sweat extracts. The bioassay was conducted in a wind tunnel^9 that was connected to 2 identical flight chambers, stainless steel frames 1.0 m long, covered in thin gauge plastic tubing and sealed at both ends with mosquito netting, FIG. 1. Twenty, 5-8 day old An gambiae s.s. females were introduced into each flight chamber. The mosquitoes were activated with 2 pulses of carbon dioxide, diluted with filtered air to give pulses of 0.1% above background. Activated mosquitoes flew upwind and approached heated (34° C., human skin temperature) glass cylinders to which strips of filter paper were attached. […] All bioassays began on the 3rd hour of the night period (21.00 h). To collect sweat, strips of filter paper were strapped around the leg, just above the ankle, of a human volunteer for 24 h. A strip of sweat impregnated filter paper was placed onto one cylinder and a filter paper dampened with […] of distilled water was placed onto the second, the control, cylinder The bioassay was repeated 6 times, the position of the sweat and the control filter papers alternated between bioassays. […] The response to the sweat declined during the bioassay, FIG. 3A, and is probably due to the evaporation of behaviourally active volatiles.

[2] = tested on: Aedes aegypti; test: as above; assay type: in vivo; conditions: in water at 1 μg/μl; FIG. 4
Description: Trials used either Aedes aegypti or the Tanzanian KWA strain of Anopheles gambiae s.s., both obtained from the London School of Hygiene and Tropical Medicine. The rearing and bioassay rooms were maintained at 27° C. ±2° and 70% RH ±10%. The rearing room was kept on a 12/12 light dark cycle of 170 Wm^−2 and 0.3 Wm^−2 respectively with a 30 minute dusk period of 0.5 Wm^−2 at the day night interface.
To circumvent this problem we concentrated on investigating the landing responses of An gambiae s.s. on heated glass cylinders treated with sweat and sweat extracts. The bioassay was conducted in a wind tunnel^9 that was connected to 2 identical flight chambers, stainless steel frames 1.0 m long, covered in thin gauge plastic tubing and sealed at both ends with mosquito netting, FIG. 1. Twenty, 5-8 day old An gambiae s.s. females were introduced into each flight chamber. The mosquitoes were activated with 2 pulses of carbon dioxide, diluted with filtered air to give pulses of 0.1% above background. Activated mosquitoes flew upwind and approached heated (34° C., human skin temperature) glass cylinders to which strips of filter paper were attached. The number of mosquitoes landing per minute on each filter paper was recorded for 10 min by infra-red sensitive video cameras situated downwind of the flight chambers. All bioassays began on the 3rd hour of the night period (21.00 h). […]

[3] = tested on: Ae aegypti; conditions: structural activity relationship study of lactic acid analogues; cited from earlier work

With CCCC(=O)C(=O)O [2-oxopentanoic acid] the “landing response compared to water control, comparative bioassay of α-oxo-carboxylic acids” value [1] was “greatest response”, the “time of peak of landing response” value ([1]; during 10 min bioassay) was 4 min and the “total number of landings (TNL)” value ([1]; in water at 1 μg/μl vs water control) was 352. The “landing response compared to control (significance)” value ([1]; in water at 1 μg/μl vs water control, P<0.001) was “did elicit significant levels of landings”, the “landing response (significance)” value [2] was “elicited significant levels of landings; also recorded: did elicit significant levels of landings” and the “attractiveness relative to lactic acid” value [3] was “as attractive as lactic acid”.
In the case of CC(C)C(=O)C(=O)O [3-methyl,2-oxobutanoic acid], the “landing response compared to water control, comparative bioassay of α-oxo-carboxylic acids” value [1] is reported as “did elicit significant levels of landings”.
In the case of CCO [ethanol], the “total number of landings (TNL)” value ([1]; ethanol vs blank control) is reported as 141 and the “landing response compared to control (significance)” value ([1]; ethanol vs blank control, P>0.05) is reported as “not a significant difference”.
With CC(O)C(=O)O (stereo not drawn) [lactic acid, L(+) lactic acid (2-hydroxypropanoic), reference compound] the “total number of landings (TNL)” value ([1]; in ethanol at 0.2 μg/μl vs ethanol control) was 167 and the “landing response compared to control (significance)” value ([1]; in ethanol at 0.2 μg/μl vs ethanol control, P>0.05) was “did not elicit significant levels of landings”.
With CCC(=O)C(=O)O [oxobutanoic acid] the “landing response compared to water control, comparative bioassay of α-oxo-carboxylic acids” value [1] was “did elicit significant levels of landings”.
In the case of CC(=O)C(=O)O [oxopropanoic acid], the “landing response compared to water control, comparative bioassay of α-oxo-carboxylic acids” value [1] is reported as “did elicit significant levels of landings”.
